Test results from PMC12681733, “Multifunctional kojic acid-tetrahydroisoquinoline hybrids: Synthesis, tyrosinase inhibition, and applications in the anti-browning of fresh-cut mushrooms” (Current Research in Food Science, 2025).

What was measured:
Escherichia coli = assay: Antibacterial activity, plate counting; type: cell-based; conditions: for antibacterial rate against E. coli: KA and THIQ groups, Fig. 7A
Procedure: (§1) The antibacterial activity of 4c against Escherichia coli (E. coli) and Staphylococcus aureus (S. aureus) was evaluated using a modified plate counting method based on literature reports ([Ruan et al., 2024]). In this process, the strains were first activated on LB agar medium at 37 °C for 18 h. Subsequently, bacterial suspensions (1 × 10^8 CFU/mL) were prepared in fresh nutrient broth medium according to the 0.5 McFarland turbidity standard. These suspensions were then diluted to 1 × 10^5 CFU/mL for antibacterial testing. Various concentrations of 4c solutions were prepared and mixed with the 1 × 10^5 CFU/mL bacterial suspensions, with equal volumes of physiological saline added to the control group. The mixtures were incubated at 37 °C for 12 h, serially diluted, plated (100 μL) onto plate count agar medium, and incubated for 24 h at 37 °C for colony counting. Each experiment was conducted in triplicate, and the antibacterial rate was calculated using the following formula (2):(2) BacterialInhibitionrate(%)=(1−XS/X0)×100% where X0 represented the bacterial colony count of the control group post 24-h incubation, while XS denoted the average bacterial colony count of the sample group.

Staphylococcus aureus = assay: Antibacterial activity, plate counting; type: cell-based; conditions: for antibacterial rate against S. aureus: KA and THIQ groups, Fig. 7A
Procedure: as §1

tyrosinase [1] = assay: ANS-binding fluorescence measurement; conditions: 4c from 0 μM to 50 μM
Procedure: An equal volume of ANS solution (80 μM) was added to the tyrosinase solution (400 U/mL). After thorough mixing, the mixture was left to stand at room temperature for 30 min. Subsequently, a specific amount of the ANS-labeled tyrosinase solution was extracted, vigorously shaken, and 4c was incrementally added dropwise to this mixture. The fluorescence spectrum of the mixture was scanned under conditions of an excitation wavelength of 390 nm, an emission slit width of 5 nm, and an emission wavelength range of 400–600 nm ([Lü et al., 2010]).

tyrosinase [2] = assay: Fluorescence quenching of tyrosinase; type: binding
Procedure: Fluorescence intensity quantification was performed on a spectrofluorometer (Cary Eclipse) following a literature-established protocol ([Peng et al., 2021]), a tyrosinase solution (200 U/mL) was prepared in phosphate buffer (pH = 6.8). Incremental volumes of 4c solution at identical concentrations were added to the enzyme solution. With an excitation wavelength of 280 nm, an emission slit width of 5 nm, and the mixture was recorded in the 290–450 nm emission wavelength range.

fresh-cut mushrooms = assay: Anti-browning study on fresh-cut mushrooms; set-up: species or system button mushrooms; conditions: 100 μM sprayed, 4 °C, 7-day storage; versus KA and control
Procedure: Fresh and clean mushrooms of appropriate size were purchased from the local supermarket and their surfaces were evenly trimmed. […] CIE Lab values (L∗, a∗, and b∗) were measured using a colorimeter (NR60CP) to monitor the color changes of the fresh-cut mushrooms ([Wang et al., 2023]). The browning progression on mushroom surfaces was monitored via daily photographic documentation. The anti-browning efficacy was quantified using the total color difference (ΔE), calculated according to formula (4):(4) ΔE=[(Lt∗−Linitial∗)^2+(at∗−ainitial∗)^2+(bt∗−binitial∗)^2]^0.5

[3] = Stability evaluation (HPLC content); type: physicochemical
Procedure: The purpose of stability testing is to provide evidence on how the quality of an active substance varies with time under the influence of a variety of environmental factors such as temperature, humidity, and light. Compound 4c with the strongest activity was evaluated for its stability. 4c was first dissolved in acetonitrile to prepare a 100 mM stock solution. This stock solution was then diluted to a 10 mM working concentration using different pH buffer solutions (4.0, 7.0 and 9.0). The samples were aliquoted into sealed vials. These vials were placed at different temperatures (25 °C, 40 °C and 60 °C) under both light-exposed and light-protected conditions for stability testing. The content change of the compound was monitored at scheduled time intervals (0 h, 24 h and 72 h) using an HPLC method.

tyrosinase [4] = assay: UV spectra measurement; type: binding; conditions: addition of 4c
Procedure: Following the reported methods ([Chen et al., 2022]), a 3 mL assay system was established by adding a solution of 4c (300 μM, 350 μL) and tyrosinase solution (200 U/mL, 400 μL) to 2250 μL of PBS at pH 6.8. Spectral measurements were carried out using a UV-1800 spectrophotometer with wavelength scanning from 200 to 400 nm. Three experimental controls were implemented: (1) PBS buffer as blank reference, (2) 4c solution in PBS without enzyme, and (3) enzyme solution in PBS without 4c. To ensure measurement reliability, all spectra were acquired in triplicate through independent scanning processes. Background corrections were systematically applied using corresponding control solutions for each experimental condition.

Botrytis cinerea = assay: Antifungal activity, radial growth on PDA; type: cell-based; conditions: 4c at high concentrations (5, 15, 30 μg/mL tested), 72 h
Procedure: Fungal contamination is a major cause of food spoilage. To evaluate the antifungal potential of 4c, its efficacy against the common phytopathogen Botrytis cinerea (B. cinerea) was investigated ([Zhou et al., 2025]). The assay was performed as follows: B. cinerea was first cultivated on Potato Dextrose Agar (PDA) to ensure robust growth. Subsequently, 4c was prepared at various concentrations and incorporated into PDA to form a drug-containing medium. Fungal mycelia were then inoculated onto the center of both the treatment and control plates, with the latter containing an equal volume of physiological saline instead of the compound. All plates were incubated at 27 °C for 72 h. Following incubation, the colonial growth on each Petri dish was photographed, with particular attention to the mycelial morphology and expansion. The antifungal activity was quantified by measuring the radial growth of the fungus, and the inhibition rate was calculated according to formula (3):(3) FungalInhibitionrate(%)=(1−DS/D0)×100% where D0 is the growth size of the control group, DS is the growth size of the group containing the sample group.

zebrafish embryos = assay: Acute toxicity in zebrafish embryos (OECD FET No. 236); type: in vivo; conditions: 4c 25, 50, 100 μM; KA 100 μM; observed at 48 hpf
Procedure: The acute toxicity assay was conducted in accordance with the Guidelines of Organization for Economic Co-operation and Development (OECD) for the Testing of Chemicals, Fish Embryo Acute Toxicity (FET) Test, No. 236 ([OECD, 2013]). All zebrafish procedures in this study were approved by Anhui Medical University Experimental Animal Ethics Committee (Protocol No.: LLSC20241625). The zebrafish were maintained in accordance with the established protocols of the Zebrafish International Resource Center. Surviving zebrafish were humanely euthanized at the end of the study to prevent prolonged suffering. The euthanasia method involved immersion in a buffered solution of tricaine methanesulfonate at a concentration of 300 mg/L for at least 10 min, followed by confirmation of death through the cessation of gill movement and heartbeat. Carcasses were promptly frozen at −20 °C and disposed of through authorized biological waste channels.
Referring to published methods with certain modifications ([Qian et al., 2018]), 13–15 h post-fertilization (hpf) zebrafish embryos were placed in small dishes containing 5 mL of culture medium in this experiment. Different concentrations of 4c (25, 50, 100 μM) and KA (100 μM) were added to the dishes, respectively, and the experiments were repeated three times. […]

tyrosinase [5] = biological target: tyrosinase (Agaricus bisporus, UniProt C7FF04); assay: Kinetic analysis (Lineweaver-Burk plots, L-DOPA); type: biochemical, mushroom
Procedure: Reaction rates were determined using different concentrations of compounds (1.25, 2.5, and 5 μM) and L-DOPA solutions (0.5, 1, 1.5, and 2 mM).

tyrosinase [6] = conditions: ref Zhang et al., 2025; cited from earlier work
[7] = plot of log[(F0−F)/F] against log[I]
[8] = 4c at high concentrations (5, 15, 30 μg/mL tested)

Sequence of tyrosinase (Agaricus bisporus, UniProt C7FF04) (C7FF04 1-392): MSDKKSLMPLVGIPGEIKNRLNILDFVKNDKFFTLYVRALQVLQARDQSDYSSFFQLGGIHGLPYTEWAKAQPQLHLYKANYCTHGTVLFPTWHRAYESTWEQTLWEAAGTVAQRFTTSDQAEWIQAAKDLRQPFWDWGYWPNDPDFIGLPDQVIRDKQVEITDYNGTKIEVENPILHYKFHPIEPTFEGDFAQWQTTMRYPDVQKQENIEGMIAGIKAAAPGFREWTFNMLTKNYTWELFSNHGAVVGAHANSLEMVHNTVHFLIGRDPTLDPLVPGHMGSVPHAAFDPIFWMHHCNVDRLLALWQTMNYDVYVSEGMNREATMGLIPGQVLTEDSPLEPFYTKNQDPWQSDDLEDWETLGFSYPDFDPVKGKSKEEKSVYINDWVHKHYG

c1ccc2c(c1)CCNC2 [THIQ, tetrahydroisoquinoline]
antibacterial rate against E. coli (Escherichia coli): low antibacterial rates
antibacterial rate against S. aureus (Staphylococcus aureus): low antibacterial rates

COc1ccc2c(c1)CCN(Cc1cc(=O)c(O)co1)C2 [Compound 4c]
maximum fluorescence intensity of ANS-TYR (tyrosinase [1]): gradually increased
relative fluorescence intensity (tyrosinase [2]; 25 μM 4c): 52%
fluorescence intensity of tyrosinase (tyrosinase [2]; 25 μM 4c, 146.61 without inhibitor, emission peak 354 nm): 76.92
fluorescence quenching mechanism (tyrosinase [2]; Kq versus maximum dynamic quenching constant): static quenching
Stern-Volmer quenching constant Ksv (tyrosinase [2]; Stern-Volmer plot): 43000 L/mol
bimolecular quenching constant Kq (tyrosinase [2]; Stern-Volmer plot): 4.3 × 10^12 L mol^−1 S^−1
apparent binding constant Ka (tyrosinase [2]; [7]): 15100 L/mol
number of binding sites n (tyrosinase [2]; [7]): 1.11
L∗ (lightness) of fresh-cut mushrooms (fresh-cut mushrooms): highest L∗ value
total color difference ΔE of fresh-cut mushrooms (fresh-cut mushrooms): lowest ΔE value
inhibition rate against E. coli (Escherichia coli; [8]): ~100%
inhibition rate against S. aureus (Staphylococcus aureus; [8]): ~100%
content (stability testing) ([3]; 25℃, pH 4, 0 h): 97.01%
content (stability testing) ([3]; 25℃, pH 4, 24 h): 98.10%
content (stability testing) ([3]; 25℃, pH 4, 72 h): 98.32%
content (stability testing) ([3]; 25℃, pH 7, 0 h): 98.63%
content (stability testing) ([3]; 25℃, pH 7, 24 h): 97.48%
content (stability testing) ([3]; 25℃, pH 7, 72 h): 98.03%
content (stability testing) ([3]; 25℃, pH 9, 0 h): 97.43%
content (stability testing) ([3]; 25℃, pH 9, 24 h): 97.48%
content (stability testing) ([3]; 25℃, pH 9, 72 h): 97.59%
content (stability testing) ([3]; 40℃, pH 4, 0 h): 97.02%
content (stability testing) ([3]; 40℃, pH 4, 24 h): 97.50%
content (stability testing) ([3]; 40℃, pH 4, 72 h): 97.41%
content (stability testing) ([3]; 40℃, pH 7, 0 h): 97.56%
content (stability testing) ([3]; 40℃, pH 7, 24 h): 96.04%
content (stability testing) ([3]; 40℃, pH 7, 72 h): 97.75%
content (stability testing) ([3]; 40℃, pH 9, 0 h): 96.51%
content (stability testing) ([3]; 40℃, pH 9, 24 h): 95.00%
content (stability testing) ([3]; 40℃, pH 9, 72 h): 96.12%
content (stability testing) ([3]; 60℃, pH 7, 0 h): 96.64%
content (stability testing) ([3]; 60℃, pH 7, 24 h): 96.84%
content (stability testing) ([3]; 60℃, pH 7, 72 h): 96.62%
content (stability testing) ([3]; 60℃, pH 9, 0 h): 96.61%
content (stability testing) ([3]; 60℃, pH 9, 24 h): 96.04%
content (stability testing) ([3]; 60℃, pH 9, 72 h): 96.26%
content (stability testing) ([3]; Light, pH 7, 0 h): 96.64%
content (stability testing) ([3]; Light, pH 7, 24 h): 96.84%
content (stability testing) ([3]; Light, pH 7, 72 h): 96.62%
content (stability testing) ([3]; Light, pH 9, 0 h): 96.61%
content (stability testing) ([3]; Light, pH 9, 24 h): 96.04%
content (stability testing) ([3]; Light, pH 9, 72 h): 96.26%
retention rate ([3]; after 72 h, all pH (4.0, 7.0, 9.0) and temperatures (25, 40, 60 °C)): > 95%
characteristic absorption peak of tyrosinase at 280 nm (tyrosinase [4]): significant decrease
inhibition rate against B. cinerea (Botrytis cinerea): ~90%
acute toxicity in zebrafish embryos (zebrafish embryos): no significant toxic effects
Ki (tyrosinase [5]; L-DOPA substrate, slope replot, read-out: inhibition constant Ki for free enzyme): 1.48 µM
inhibition type (tyrosinase [5]; Lineweaver-Burk plots): mixed-type inhibitor

Oc1ccccc1-c1nnc(S)o1 [Compound 2f, 5-(2-hydroxyphenyl)-1,3,4-oxadiazole-2-thiol]
IC50 (tyrosinase [6]): 17.7 ± 0.21 µM

O=c1cc(CO)occ1O [Kojic acid]
antibacterial rate against E. coli (Escherichia coli): low antibacterial rates
antibacterial rate against S. aureus (Staphylococcus aureus): low antibacterial rates
acute toxicity in zebrafish embryos (zebrafish embryos): partial mortality
